Structures can show the parent of a compound that is named as a salt. Where two headings read alike, the source gives them in different places.
Experiments:
[1] = biological target: T1, vanilloid receptor VR1 (capsaicin receptor) (Rattus norvegicus, UniProt O35433); assay: Determination of affinity for vanilloid receptor VR1 ([3H] resiniferatoxin binding, rat spinal cord membranes); design: species or system Sprague Dawley rats
T1 construct: isolated from the spinal cord of male Sprague Dawley rats (breeder: Charles River Deutschland, 32699 Extertal) and used for preparation of the membrane; from tissue; host or cells: rat spinal cord (cervical region and one third of the thoracic region) membranes
Description: This method was developed on the basis of the publication by Acs et al., J. Neurochem. 65, 301-308 (1995). The corresponding description is hereby introduced as a reference and is deemed to be part of the disclosure.
• Sprague Dawley rats weighing between 150-300 g • (breeder: Charles River Deutschland, 32699 Extertal, Germany) • HEPES (item no. H-3375, SIGMA) • NaCl (item no. 6400.1000; Merck) • KCl (item no.: 4936.1000; Merck) • HCl (item no.: 1.00317; Merck) • [^3H] resiniferatoxin ([^3H] RTX) (item no.: NET-1132, Perkin-Elmer) • Resiniferatoxin (RTX, cold) (item no.: 550-179-M001, Alexis) • D-Glucose (item no.: 1.08337.1000, Merck) • Sucrose (item no.: S-9378, Sigma) • α1-acid glycoprotein (item no.: G-3643, Sigma) • BSA (bovine serum albumin, item no.: A-2153, Sigma) • GF/B filter mats (Brandel Inc., cat. no. FP 100, size: 2¼″×12¼″)
Buffer: (Concentration values in brackets in each case in mM)
• HEPES (10); KCl (5); NaCl (5.8); CaCl (0.75); MgCl (2.0); D-glucose (12); • sucrose (137). The pH value is adjusted at room temperature using 20% strength HCl. B. Preparation of Membranes
The cervical region and one third of the following thoracic region is isolated from the spinal cord of male Sprague Dawley rats (breeder: Charles River Deutschland, 32699 Extertal) and used for preparation of the membrane. After the combined tissue is weighed, it is homogenized in ice-cooled buffer of the above-stated composition. 20 ml of buffer were used per 1 g of tissue (1:20 weight/volume). Homogenisation performed with a homogeniser from Kinematica, model Polytron PT-3000 with PT-DA-3012/2 drive unit. The spinal cord tissue is disrupted within 60 seconds in the cold buffer with ice cooling at a rotational speed of 6000 rpm. The material is then centrifuged for 10 minutes at 1000 g and +4° C. and the resultant precipitate discarded. The […] in the same volume of buffer of the above-stated composition. The material is then centrifuged for 40 minutes at 48,000 g and +4° C. and the supernatant discarded. The resultant precipitate is resuspended in 30 ml of buffer of the above-stated composition and used in this form in the vanilloid receptor (VR1) assay.
Incubation is performed in the water bath for one hour at 37° C. The samples are then placed in an ice bath for 15 minutes. In order to minimise nonspecific adsorption of the RTX, 100 μg of α1-acid glycoprotein (in 50 μl of buffer) are added to each incubation tube. The samples are then thoroughly mixed on a vortex shaker and left to stand for 10 minutes. The batches are then filtered with the assistance of the model M-24R “Brandel Cell Harvester” through a GF/B glass fiber filter mat which has been presoftened in tris buffer. The filter is then rinsed through 3 times with 4 ml portions of ice-cold HEPES buffer of the above-stated composition for each sample. The filters are transferred into scintillation counter vessels, each is combined with a 10 ml portion of “Ready Protein” scintillating material, and the vessels are closed with screw caps. The vessels are shaken on the vortex shaker and left to stand for at least 15 hours in the fume cupboard. The samples are then measured on the β-counter (model 1409 Wallac, Perkin Elmer, 63110 Rogau-Jügesheim, Germany).

[2] = biological target: T2, vanilloid receptor (VR1) (Rattus norvegicus, UniProt O35433); assay: Functional investigations on vanilloid receptor (VR1): Ca2+ influx FLIPR assay in CHO K1 cells stably transfected with the VR1 gene; format: cell-based, rats; conditions: method (b), 10 μM, 1–3 measurements; for inhibition at 10 µM: CHO-K1, read-out: VR1 inhibition in rats (10 μM) [%]
T2 construct: expressed in transfected cells; host or cells: CHO K1 cells (ECACC)
Description: (b) Functional Investigations on Vanilloid Receptor (VR1)
The agonistic or antagonistic action of the substances to be investigated on the vanilloid receptor (VR1) may be determined with the following assay. According to this assay, the influx of Ca^2+ through the channel is quantified with the assistance of a Ca^2+-sensitive dye (type Fluo4, Molecular Probes Europe BV, Leiden, Netherlands) in a Fluorescent Imaging Plate Reader (FLIPR, Molecular Devices, Sunnyvale, USA).
Chinese hamster ovary cells (CHO K1 cells, European Collection of Cell Cultures (ECACC), Great Britain) are stably transfected with the VR1 gene. For functional investigations, these cells are plated out onto poly-D-lysine-coated, black 96 well plates with a clear bottom (BD Biosciences, Heidelberg, Germany) at a density of 25,000 cells/well. The cells are incubated overnight at 37° C. and 5% CO2 in a culture medium (Ham's Nutrient Mixture F12, 10 vol. % FCS (foetal calf serum), 18 μg/mL L-proline). On the following day, the cells are incubated with Fluo4 (Fluo4 2 μM, Pluronic F127 0.01 vol. %, Molecular Probes in HBSS (Hank's buffered saline solution), Gibco Invitrogen GmbH, Karlsruhe, Germany) for 30 minutes at 37° C. The plates are then washed 3 times with HBSS buffer and, after a further 15 minutes' incubation at room temperature, used for Ca^2+ measurement in the FLIPR. Ca^2+-dependent fluorescence is here measured before and after addition of the substances to be investigated (wavelength λex=488 nm, λem=540 nm). Quantification proceeds by measuring the highest fluorescence intensity (FC, fluorescence counts) over time.
The FLIPR protocol comprises 2 additions of substance. […] The percentage inhibition in comparison with the maximum achievable inhibition with 10 μM capsazepine is calculated.

T2 sequence (O35433 whole entry): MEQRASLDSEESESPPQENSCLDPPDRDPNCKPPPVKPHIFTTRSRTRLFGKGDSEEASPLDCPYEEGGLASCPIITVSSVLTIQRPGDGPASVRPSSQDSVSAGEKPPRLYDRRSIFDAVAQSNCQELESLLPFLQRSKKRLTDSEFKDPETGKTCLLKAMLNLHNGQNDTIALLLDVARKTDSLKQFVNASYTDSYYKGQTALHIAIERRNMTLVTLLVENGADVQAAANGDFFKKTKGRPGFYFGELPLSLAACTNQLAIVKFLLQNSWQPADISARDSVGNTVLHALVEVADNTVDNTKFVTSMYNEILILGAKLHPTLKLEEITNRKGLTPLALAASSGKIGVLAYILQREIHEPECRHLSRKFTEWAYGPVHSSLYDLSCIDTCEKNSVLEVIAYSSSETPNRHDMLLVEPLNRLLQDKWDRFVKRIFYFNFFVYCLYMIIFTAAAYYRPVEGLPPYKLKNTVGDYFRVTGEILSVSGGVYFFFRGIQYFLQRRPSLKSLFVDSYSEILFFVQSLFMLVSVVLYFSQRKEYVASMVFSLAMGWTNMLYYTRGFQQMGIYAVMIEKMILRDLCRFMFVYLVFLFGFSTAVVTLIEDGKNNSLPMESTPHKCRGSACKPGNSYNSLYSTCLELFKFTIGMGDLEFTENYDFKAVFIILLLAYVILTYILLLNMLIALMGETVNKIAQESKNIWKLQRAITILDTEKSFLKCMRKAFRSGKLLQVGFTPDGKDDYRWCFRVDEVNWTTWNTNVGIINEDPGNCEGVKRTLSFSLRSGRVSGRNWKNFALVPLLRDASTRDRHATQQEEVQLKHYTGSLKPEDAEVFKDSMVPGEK
T1 sequence (O35433 whole entry): as above

Row | SMILES | inhibition at 10 µM [2] [%] | VR1 activation in rats (10 μM) [%] [2] [%] | further results
1 | CCCCC/C=C\C/C=C\C/C=C\C/C=C\CCCC(=O)NCc1ccc(O)c(OC)c1 [Arvanil] | – | – | IC50 ([1]; [3H] RTX 100 pM, rat spinal cord membranes, comparison substances, read-out: IC50 (VR-1 receptor affinity, reference data)): 8.9 µM
2 | COc1cc(CNC(=O)CCCCCCC(C)C)ccc1O [Dihydrocapsaicin] | – | – | IC50 [1]: 2.72 µM
3 | CCCCCCCNc1c(-c2ccoc2)nc2ccccn12 [Example 6, (2-Furan-3-yl-imidazo[1,2-a]pyridin-3-yl)-heptyl-amine hydrochloride] | 66.4 | – | –
4 | CCCCCC(C)(C)Nc1c(-c2ccoc2)nc2ccccn12 [Example 7, (1,1-Dimethyl-hexyl)-(2-furan-3-yl-imidazo[1,2-a]pyridin-3-yl)-amine hydrochloride] | 46 | – | –
5 | CCCCCCCNc1c(-c2ccoc2)nc2cc(C)ccn12.Cl [Example 11, (2-Furan-3-yl-7-methyl-imidazo[1,2-a]pyridin-3-yl)-heptyl-amine hydrochloride] | 81.7 | 50.3 | –
6 | CCCCCCCCNc1c(-c2ccoc2)nc2cc(C)ccn12.Cl [Example 12, (2-Furan-3-yl-7-methyl-imidazo[1,2-a]pyridin-3-yl)-octyl-amine hydrochloride] | 84.6 | 36.9 | –
7 | CCCCCC(C)(C)Nc1c(-c2ccoc2)nc2cc(C)ccn12.Cl [Example 14, (1,1-Dimethyl-hexyl)-(2-furan-3-yl-7-methyl-imidazo[1,2-a]pyridin-3-yl)-amine hydrochloride] | 97.9 | 52.1 | –
8 | CCCCCCC(C)(C)Nc1c(-c2ccoc2)nc2cc(C)ccn12.Cl [Example 15, (1,1-Dimethyl-heptyl)-(2-furan-3-yl-7-methyl-imidazo[1,2-a]pyridin-3-yl)-amine hydrochloride] | 92.5 | 49 | –
9 | CCCCCCCC(C)(C)Nc1c(-c2ccoc2)nc2cc(C)ccn12 [Example 16, (1,1-Dimethyl-octyl)-(2-furan-3-yl-7-methyl-imidazo[1,2-a]pyridin-3-yl)-amine hydrochloride] | 31.8 | – | –
10 | CCCCCC(C)(C)Nc1c(-c2ccsc2)nc2cc(C)ccn12.Cl [Example 17, (1,1-Dimethyl-hexyl)-(7-methyl-2-thiophen-3-yl-imidazo[1,2-a]pyridin-3-yl)-amine hydrochloride] | 97.5 | 68.9 | –
11 | CCCCCCC(C)(C)Nc1c(-c2ccsc2)nc2cc(C)ccn12.Cl [Example 18, (1,1-Dimethyl-heptyl)-(7-methyl-2-thiophen-3-yl-imidazo[1,2-a]pyridin-3-yl)-amine hydrochloride] | 62.8 | 45.3 | –
12 | CCCCCCCCCNc1c(-c2cccnc2)nc2cc(C)ccn12 [Example 23, (7-Methyl-2-pyridin-3-yl-imidazo[1,2-a]pyridin-3-yl)-nonyl-amine hydrochloride] | 34.4 | – | –
13 | CCCCCCCCNc1c(-c2ccncc2)nc2cc(C)ccn12 [Example 25, (7-Methyl-2-pyridin-4-yl-imidazo[1,2-a]pyridin-3-yl)-octyl-amine hydrochloride] | 33.2 | – | –
14 | CCCCCC(C)(C)Nc1c(-c2ccncc2)nc2cc(C)ccn12 [Example 26, (1,1-Dimethyl-hexyl)-(7-methyl-2-pyridin-4-yl-imidazo[1,2-a]pyridin-3-yl)-amine hydrochloride] | 32.1 | – | –
15 | CCCCCCCCNc1c(-c2ccoc2)nc2ccc(C)cn12 [Example 27, (2-Furan-3-yl-6-methyl-imidazo[1,2-a]pyridin-3-yl)-octyl-amine hydrochloride] | 61.1 | – | –
16 | CCCCCC(C)(C)Nc1c(-c2ccoc2)nc2ccc(C)cn12 [Example 28, (1,1-Dimethyl-hexyl)-(2-furan-3-yl-6-methyl-imidazo[1,2-a]pyridin-3-yl)-amine hydrochloride] | 36.6 | – | –
17 | CC1(C)C[C@H]2C=C(C=O)[C@]3(C=O)C[C@]3(C)[C@H]2C1 [Isovelleral] | – | – | IC50 [1]: 7.22 µM
18 | C=C(C)[C@]12C[C@@H](C)[C@@]34O[C@](Cc5ccccc5)(O[C@@H]1[C@@H]3C=C(COC(=O)Cc1ccc(O)c(OC)c1)C[C@]1(O)C(=O)C(C)=C[C@@H]41)O2 [Resiniferatoxin] | – | – | IC50 [1]: 0.00021 µM

— US7592351B2, “Substituted imidazo[1,2-a]pyridine compounds and pharmaceutical preparations containing substituted imidazo[1,2-a]pyridine compounds” (Gruenenthal GmbH, priority 2004, dated 2009)
